Assay [1] has as its system Phosphodiesterase III. The experiment in a line: Inhibition of phosphodiesterase activity ([3H]cAMP hydrolysis). It is filed as biochemical. The settings on record: PDE partially purified from human U937 cells, 1.0 μM cAMP, 30° C., 20 minutes; test concentration not given. How it is done: (§1) II. Inhibition of Phosphodiesterase IV Activity
(§2) Phosphodiesterase I, II, III, IV or V partially purified from human U937 cells, test compound of Example 1, 2 or 3 and 1.0 μM cAMP including μM [^3 H] cAMP were incubated at 30° C. for 20 minutes. The PDE reaction to convert cAMP into AMP was completed by boiling the reaction solution for 2 minutes. AMP was converted into adenosine by adding snake venom nucleotidase and incubating the reaction solution for 10 minutes. While unhydrolyzed cAMPs were bonded to AG1-X2 resin, the aqueous remaining [^3 H] adenosine was quantified by scintillation counting. The results are shown in Table II below, in which the values indicate inhibition(%) of each PDE by each test compound.

For assay [2], the target named is T1, Phosphodiesterase V (Homo sapiens, UniProt O76074).
T1 construct: printed source human U937 cells (possibly human platelets in practice)
The description is as above. Format: biochemical. The note with it: PDE partially purified from human U937 cells, 1.0 μM cAMP, 30° C., 20 minutes; test concentration not given. The protocol: as §1, §2

Assay [3] concerns Phosphodiesterase IV. Described as above. Format: biochemical. The note with it: PDE partially purified from human U937 cells, 1.0 μM cAMP, 30° C., 20 minutes; test concentration not given. How it is done:
as §1, §2

In assay [4] the test system is Phosphodiesterase I. Described as above. Format: biochemical. The settings on record: PDE partially purified from human U937 cells, 1.0 μM cAMP, 30° C., 20 minutes; test concentration not given. The protocol:
as §1, §2

Assay [5] deals with T2, Phosphodiesterase II (Homo sapiens, UniProt O00408).
T2 construct: partially purified from human U937 cells; endogenous in cells; host or cells: U937 cells (partially purified)
The description is as above. Format: biochemical. The note with it: PDE partially purified from human U937 cells, 1.0 μM cAMP, 30° C., 20 minutes; test concentration not given. The protocol:
as §1, §2

In assay [6] the test system is Wistar rats. The experiment in a line: Passive Cutanious Anaphylaxis (PCA). It is filed as in vivo, rat. The note with it: oral, female Wistar rats, evans blue read at 620 nm. The protocol: I. Passive Cutanious Anaphylaxis (PCA)
Hair on the back of each of the three 5 weeks old female Wistar rats were cut by clippers. Prepared mouse antiserum was diluted with 50×physiological saline solution. 0.05 ml of diluted antiserum solution was subcutaneously injected into two hair-cut sites on the back of each rat. After 3 hours, the test compounds were orally administered to the rats. After 30 minutes, 0.1% ovalbumin as antigen was mixed with 1% evans blue in the equivalent volumes and 0.1 ml of the mixture was injected in a peripheral vein of the tail of each rat. After 30 minutes, rats were sacrificed by bleeding from the abdominal arteries and their skins were stripped from the subcutaneous injection spots in uniform sizes. After immersing the stripped skins in 1.0 ml of 1.2 N KOH in 9 ml test tube and stopping the tube, a shaking incubation was performed at 37° C. for 24 hours. Then, after the mixtured solution of acetone and 0.6 N phosphoric acid (13:5) was added, the test tube was shaking-incubated for 1 hour and centrifuged to 1,700 g at 20° C. for 10 minutes. After insoluble lipids were removed from the top of the supernatant, the supernatant was measured at 620 nm. IgE was quantified by diluting the mixtured acetone-phosphoric aicd solution and drawing evans blue assay lines. The results are shown in Table I below, in which the amounts of IgE were expressed as μg/ml.

T2 sequence (O00408 whole entry): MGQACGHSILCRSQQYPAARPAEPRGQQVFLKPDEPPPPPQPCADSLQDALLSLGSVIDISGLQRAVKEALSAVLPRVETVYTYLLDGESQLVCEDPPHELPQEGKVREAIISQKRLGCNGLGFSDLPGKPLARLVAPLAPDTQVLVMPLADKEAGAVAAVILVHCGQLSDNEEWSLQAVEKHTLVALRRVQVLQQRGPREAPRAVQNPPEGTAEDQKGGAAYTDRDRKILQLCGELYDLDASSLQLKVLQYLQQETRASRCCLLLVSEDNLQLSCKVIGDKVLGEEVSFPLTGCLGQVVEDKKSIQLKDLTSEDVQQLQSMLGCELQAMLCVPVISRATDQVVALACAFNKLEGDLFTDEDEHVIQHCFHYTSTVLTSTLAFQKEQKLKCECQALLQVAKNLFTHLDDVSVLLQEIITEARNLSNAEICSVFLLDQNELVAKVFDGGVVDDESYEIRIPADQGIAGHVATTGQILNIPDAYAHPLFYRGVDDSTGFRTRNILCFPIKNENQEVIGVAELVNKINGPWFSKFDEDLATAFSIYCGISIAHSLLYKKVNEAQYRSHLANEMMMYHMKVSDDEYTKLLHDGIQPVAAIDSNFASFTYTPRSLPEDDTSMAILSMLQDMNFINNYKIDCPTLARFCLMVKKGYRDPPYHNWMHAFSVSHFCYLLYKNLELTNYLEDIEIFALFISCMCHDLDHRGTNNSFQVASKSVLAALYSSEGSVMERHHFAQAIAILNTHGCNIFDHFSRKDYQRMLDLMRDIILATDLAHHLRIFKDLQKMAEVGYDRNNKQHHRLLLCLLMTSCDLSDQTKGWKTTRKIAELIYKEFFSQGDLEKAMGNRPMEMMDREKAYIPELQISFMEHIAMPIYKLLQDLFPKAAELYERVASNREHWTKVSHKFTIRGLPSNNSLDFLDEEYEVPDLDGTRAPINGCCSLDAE

As for `COc1ccc(C(=O)Nc2n[nH]cc2C(N)=O)cc1OC1CCCC1` [Example 1, 3-(3-cyclopentyloxy-4-methoxyphenylcarboxylamido)-1H-4-pyrazolecarboxylamide], the “inhibition(%) of Phosphodiesterase Type III” value in assay [1] is 68%. For the same compound, in assay [2], the “inhibition(%) of Phosphodiesterase Type V” value came out at 89%. In assay [3], the “inhibition(%) of Phosphodiesterase Type IV” value is 90%. Further, the “inhibition(%) of Phosphodiesterase Type I” value in assay [4] was 58%. Further, the “inhibition(%) of Phosphodiesterase Type II” value in assay [5] turned out to be 65%. For the same compound, the “amounts of IgE” value in assay [6] (dose 0.1 mg/rat) is 4.578 µg/mL; in assay [6] (dose 2.0 mg/rat), 4.099 µg/mL.
For `COc1ccc(C(=O)Nc2nc[nH]c2C(N)=O)cc1OC1CCCC1` [Example 2], in assay [1], the “inhibition(%) of Phosphodiesterase Type III” value worked out at 67%. Further, in assay [2], the “inhibition(%) of Phosphodiesterase Type V” value is 61%. The “inhibition(%) of Phosphodiesterase Type IV” value in assay [3] is reported as 80%. In assay [4], the “inhibition(%) of Phosphodiesterase Type I” value came out at 68%. The “inhibition(%) of Phosphodiesterase Type II” value in assay [5] worked out at 60%. Also, the “amounts of IgE” value in assay [6] (dose 0.1 mg/rat) is 3.381 µg/mL; in assay [6] (dose 2.0 mg/rat), 2.694 µg/mL.
`COc1ccc(C(=O)Nc2ccsc2C(N)=O)cc1OC1CCCC1` [Example 3]: the “inhibition(%) of Phosphodiesterase Type III” value in assay [1] is reported as 74%. The “inhibition(%) of Phosphodiesterase Type V” value in assay [2] was 69%. The “inhibition(%) of Phosphodiesterase Type IV” value in assay [3] turned out to be 90%. Further, the “inhibition(%) of Phosphodiesterase Type I” value in assay [4] was 67%. Besides, in assay [5], the “inhibition(%) of Phosphodiesterase Type II” value was found to be 68%.

Values taken from patent US6103729A, “Cathecol derivatives and a method for the preparation thereof and a pharmaceutical composition containing the same” (Cheil Jedang Corp., priority 1996, dated 2000).
